US20230094545A1, “S1P RECEPTOR MODULATORS” (AKAAL PHARMA PTY LTD, priority 2020, published 2023)
Where “and” joins values, the source holds several entries; their conditions need not be identical. Equal entries are not always repeated. Entries after “also recorded” stand apart in the source; their conditions may differ.

Columns and labels:
[1] = 8 mg daily oral dosing for 7 days in healthy human subjects: systemic exposure, lymphocyte counts; format: in vivo
Method: One cohort (8 human subjects) was treated daily with 8 mg oral dosing for 7 consecutive days.

EAE = test: Animal model of multiple sclerosis (EAE induced with guinea pig MBP); format: in vivo, Lewis rats; conditions: EAE rats, oral every day until day 26
Method: The oral treatment with a compound of formula (I) was conducted in an animal model of multiple sclerosis. EAE was induced in female Lewis rats with guinea pig MBP (25 μg/rat).

DSS-induced colitis = test: DSS-induced ulcerative colitis model; format: in vivo, Balb/C Mice
Method: The effect of a compound of formula (I) was assessed in an animal model of Ulcerative colitis. 24 Balb/C Mice were divided into […]; control and treatment (n=6). Acute colitis was induced in all groups by adding 2.5% w/v Dextran Sulphate Sodium (DSS) treatment in drinking water for 5-7 days. A compound of Formula I was administered at dose of 3 mg/kg body weight by oral route as a repeated dose for 3 or 6 days, consecutively. […] During day 6 these observations were reduced to 16.66% in control and 0.00% in a compound of Formula I group.
The mean colon lengths were 9.67 cm, 9.88 cm, 11.20 cm and 13.02 cm in day 3 control group, day 6 control group, day 3 a compound of Formula I treated group and day 6 a compound of Formula I treated group respectively. […] The severity of presence of haemorrhages with desquamated cells seen in lumen of colon of control animals was reduced in a compound of Formula (I) treated animals.

[2] = individual healthy human subjects, 8 mg oral daily for 7 days, listed as compound of formula (1)

CCCOc1ccc(-c2nc(-c3ccc4oc(C(N)(CO)CO)cc4c3)no2)cc1Cl [compound of formula (I)]
bradycardia and lymphopenia ([1]; 2 g daily topical 3% ww for 3 weeks and oral 8 mg daily for one week): without event of bradycardia and significant lymphopenia
concentration at 7 days ([1]; human, in vivo, po, 8 mg daily, humans, 8 mg oral daily for 7 days): ~53 ng/mL
measured lymphopenia ([1]; humans, 8 mg daily dosing for one week): up to 40%
lymphopenia ([1]; humans, 8 mg oral daily for 7 consecutive days): mild lymphopenia
systemic exposure (mean / average) ([1]; humans, 8 mg oral daily for 7 days): 53.3 ng/mL
ALC Change (%) [1, 2]: −33.33% and −27.66% and −35.71% and 0% and +40% and −22.58% and −15.56% and −20%
CD3 Change (%) [1, 2]: −18.75% and −30.32% and −30.58% and −0.6% and −12.58% and −5.77% and −12.36% and −11.86%
CD4 Change (%) [1, 2]: −22.41% and −33.62% and −32% and −5.2% and −10.91% and −8.21% and −25.3% and −7.87%
CD8 Change (%) [1, 2]: −19.05% and −27.87% and −31.74% and −1.67% and −13.79% and 0% and −7.06% and −11.86%
lymphopenia (EAE): lymphopenia was less; also recorded: short-term and quickly reversed
DSS-induced colitis, overall (DSS-induced colitis; 3 mg/kg oral daily): improvement of DSS-induced colitis
mean colon length (DSS-induced colitis; day 3, 3 mg/kg oral): 11.20 cm
gross pathological observations (emaciated, anal area soiled with blood) (DSS-induced colitis; day 6, 3 mg/kg oral): 0.00%
mean colon length (DSS-induced colitis; day 6, 3 mg/kg oral): 13.02 cm
increase in mucus secreting goblet cells (DSS-induced colitis; histopathology day 6): moderate ( 4/6 animals) to minimal (⅙ animals) increase
infiltration of MNC (DSS-induced colitis; histopathology day 6): minimal in 2/6 animals and mild in ⅙ animals
thickness of mucosa (DSS-induced colitis; histopathology day 6, compared to control): markedly reduced
incidence of increase in thickness of mucosa (DSS-induced colitis; histopathology of colon): mild in 3/6 animals and minimal in 2/6 animals
number of mucus secreting goblet cells (DSS-induced colitis; histopathology of colon): increased moderately ( 4/6)
severity of haemorrhages with desquamated cells in lumen of colon (DSS-induced colitis; histopathology of colon): reduced
